From patent US12637478B2, “Compound, preparation method thereof, and antibiotic composition comprising same” (priority 2020, dated 2026)
Values after ≈ are worked out from the molar mass of the structure shown. Where two headings read alike, the source gives them in different places.

Tests used:
S. aureus^MS [1] = assay: MIC by broth microdilution (aerobic pathogens), test strain 1; format: cell-based; conditions: Staphylococcus aureus; test strain 1, S. aureus^MS; read-out: MIC
Outline: (§1)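 Broth microdilution followed CLSI M7-A5 against aerobic staphylococcal and enterococcal strains, including vancomycin-resistant isolates. MIC was the lowest concentration inhibiting growth by 90% relative to untreated control.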

S. aureus^MS [2] = assay: MIC by broth microdilution (aerobic pathogens), test strain 2; format: cell-based; conditions: Staphylococcus aureus; test strain 2, S. aureus^MS; read-out: MIC
Outline: as §1

S. aureus^MR = assay: MIC by broth microdilution (aerobic pathogens), test strain 3; format: cell-based, Methicillin resistant Staphylococcus aureus; conditions: Staphylococcus aureus; test strain 3, S. aureus^MR (methicillin resistant); read-out: MIC
Procedure: (§2) The antibacterial activity of the compounds of Examples 1 to 48 of the present invention against aerobic pathogens were evaluated by measuring the minimum concentration of the antibiotic capable of inhibiting bacterial growth by 90% compared to the growth of the non-drug treated control group. MIC was measured by the broth microdilution method based on CLSI standards [Reference: Clinical and Laboratory Standards Institute Document. (2000) Methods for Dilution Antimicrobial Susceptibility Test for Bacteria that Grow Aerobically-Fifth Edition: M7-A5. CLSI, Villanova, PA].
(§3) All 13 strains such as methicillin susceptible Staphylococcus aureus (MSSA), methicillin resistant Staphylococcus aureus (MRSA), Vancomycin resistant Staphylococcus aureus (VRSA), Staphylococcus epidermidis, methicillin resistant Staphylococcus epidermidis, Enterococcus faecalis, Vancomycin resistant Enterococcus faecalis, Enterococcus faecium, Vancomycin resistant Enterococcus faecium were used.

S. aureus^VR = assay: MIC by broth microdilution (aerobic pathogens), test strain 4; format: cell-based, Vancomycin resistant Staphylococcus aureus; conditions: Staphylococcus aureus; test strain 4, S. aureus^VR (vancomycin resistant); read-out: MIC
Procedure: as §2, §3

S. epidermis = assay: MIC by broth microdilution (aerobic pathogens), test strain 5; format: cell-based; conditions: Staphylococcus epidermidis
Outline: as §1

S. epidermis^MR = assay: MIC by broth microdilution (aerobic pathogens), test strain 6; format: cell-based, Methicillin resistant Staphylococcus epidermidis; conditions: Staphylococcus epidermidis; test strain 6, S. epidermis^MR (methicillin resistant); read-out: MIC
Outline: as §1

E. faecalis = assay: MIC by broth microdilution (aerobic pathogens), test strain 7; format: cell-based; conditions: Enterococcus faecalis
Outline: as §1

E. faecalis^VanA = assay: MIC by broth microdilution (aerobic pathogens), test strain 8; format: cell-based, Vancomycin resistant Enterococcus faecalis; conditions: Enterococcus faecalis; test strain 8, E. faecalis^VanA (vancomycin resistant); read-out: MIC
Outline: as §1

E. faecalis^LinR = assay: MIC by broth microdilution (aerobic pathogens), test strain 9; format: cell-based, Linezolid resistant Enterococcus faecalis; conditions: Enterococcus faecalis; test strain 9, E. faecalis^LinR (linezolid resistant); read-out: MIC
Outline: as §1

E. faecium = assay: MIC by broth microdilution (aerobic pathogens), test strain 10; format: cell-based; conditions: Enterococcus faecium; test strain 10, E. faecium; read-out: MIC
Outline: as §1

E. faecium^LinR = assay: MIC by broth microdilution (aerobic pathogens), test strain 12; format: cell-based, Linezolid resistant Enterococcus faecium; conditions: Enterococcus faecium; test strain 12, E. faecium^LinR (linezolid resistant); read-out: MIC
Outline: as §1

M. avium = assay: MIC by resazurin (REMA) assay against Mycobacterium, test strain 21; format: cell-based
Procedure: (§4) In order to test the antibacterial activity, the medium of Mycobacterium cultured to late log phase was diluted so as to be 4.0×10^5 cells/well in Middlebrook 7H10 agar medium (Difco) supplemented with 10% oleic acid, albumin, dextrose, catalase (OADC, Becton Dickinson) and 0.05% Tween 80 (Sigma Aldrich) and was dispensed into a 96-well plate. The compounds were treated so that DMSO was 1%, and after 3 days, a 0.025% resazurin (REMA) solution was dispensed, and the growth of the bacteria was confirmed after culturing. The MIC value was measured for the antibacterial activity through resazurin (excitation 530 nm, emission 590 nm).

M. intracelluare = assay: MIC by resazurin (REMA) assay against Mycobacterium, test strain 22; format: cell-based; conditions: Mycobacterium intracellulare
Procedure: as §4

M. abscessus = assay: MIC by resazurin (REMA) assay against Mycobacterium, test strain 23; format: cell-based; conditions: Mycobacteroides abscessus
Procedure: as §4

Row | Structure (SMILES) | MIC (S. aureus^MS [1]) | MIC (S. aureus^MS [2]) | MIC (S. aureus^MR) | MIC (S. aureus^VR) | MIC (S. epidermis) | MIC (S. epidermis^MR) | MIC (E. faecalis) | MIC (E. faecalis^VanA) | MIC (E. faecalis^LinR) | MIC (E. faecium) | MIC (E. faecium^LinR) | MIC (M. avium) | MIC (M. intracelluare) | MIC (M. abscessus) | MIC (S. epidermis; test strain 5, S. epidermis, read-out: MIC) | MIC (E. faecalis; test strain 7, E. faecalis, read-out: MIC) | MIC (M. avium; test strain 21, M. avium, resazurin, read-out: MIC) | MIC (M. intracelluare; test strain 22, M. intracelluare, resazurin, read-out: MIC) | MIC (M. abscessus; test strain 23, M. abscessus, resazurin, read-out: MIC)
1 | C/C=C1\NC(=O)[C@H]([C@@H](C)O)NC(=O)c2csc(n2)-c2ccc(-c3nc(-c4nc(C(=O)NC5(C(=O)NCCN6CCN(C)CC6)CC5)cs4)cs3)nc2-c2csc(n2)[C@H]([C@@H](C)O)NC(=O)c2csc(n2)[C@H](C(C)C)NC(=O)c2csc1n2 [Compound 4] | 0.5 µg/mL (≈ 0.412 µM) | 0.5 µg/mL (≈ 0.412 µM) | 1 µg/mL (≈ 0.825 µM) | 1 µg/mL (≈ 0.825 µM) | 0.25 µg/mL (≈ 0.206 µM) | 0.5 µg/mL (≈ 0.412 µM) | 0.25 µg/mL (≈ 0.206 µM) | 0.5 µg/mL (≈ 0.412 µM) | 1 µg/mL (≈ 0.825 µM) | 0.5 µg/mL (≈ 0.412 µM) | 1 µg/mL (≈ 0.825 µM) | 0.115 µg/mL (≈ 0.0948 µM) | 0.143 µg/mL (≈ 0.118 µM) | 0.157 µg/mL (≈ 0.129 µM) | – | – | – | – | –
2 | C/C=C1\NC(=O)[C@H]([C@@H](C)O)NC(=O)c2csc(n2)-c2ccc(-c3nc(-c4nc(C(=O)NC5(C(=O)NCCN6CCN(S(C)(=O)=O)CC6)CC5)cs4)cs3)nc2-c2csc(n2)[C@H]([C@@H](C)O)NC(=O)c2csc(n2)[C@H](C(C)C)NC(=O)c2csc1n2 [Compound 29] | 0.25 µg/mL (≈ 0.196 µM) | 0.25 µg/mL (≈ 0.196 µM) | – | – | – | 0.5 µg/mL (≈ 0.392 µM) | – | – | 0.25 µg/mL (≈ 0.196 µM) | – | – | – | – | – | 0.5 µg/mL (≈ 0.392 µM) | 1 µg/mL (≈ 0.783 µM) | 0.161 µg/mL (≈ 0.126 µM) | 0.13 µg/mL (≈ 0.102 µM) | 0.43 µg/mL (≈ 0.337 µM)
